Laboratory results reported in publication PMC5522071, “Preclinical development of G1T38: A novel, potent and selective inhibitor of cyclin dependent kinases 4/6 for use as an oral antineoplastic in patients with CDK4/6 sensitive tumors” (Oncotarget, 2017).

Tests used:
[1] = Accumulation potential in plasma, 28-day repeat dose; format: in vivo, beagle dogs; details: Dog, 28-day daily oral treatment
Experimental: Beagle dogs (5/ sex) were dosed once daily for 28 consecutive days via oral gavage. The dose levels were 1, 2.5 and 5 mg/kg/day and administered at a dose volume of 5 mL/kg. Hematology samples (1ml/ time point) were collected in K3EDTA tubes twice pre-test and then on days 7, 14, 21, and 25 during the dosing period and on days 35, and 42 during the recovery period. Complete blood counts were performed and results reported. All studies were conducted utilizing methods and protocols in accordance with IACUC approval at MPI Research (Mattawan, MI).
28-day daily oral treatment
The accumulation ratio (R) was calculated for each animal

[2] = as above; details: Rat, 28-day daily oral treatment
[3] = system: RB phosphorylation (Ser807/811) in WM2664 cells; assay: Western blot for pRb and total Rb; format: cell-based
Experimental: Once phosphorylated, RB dissociates from cell cycle-promoting transcription factors, allowing them to drive the G1 to S-phase transition. Therefore, CDK4/6 inhibition of RB phosphorylation will arrest cells in G1. To assess the effect of G1T38 on RB phosphorylation, WM2664 cells were treated with varying doses of G1T38 for 24 hours. After treatment, cells were harvested and phosphorylation of RB at the Ser807/811 sites was evaluated via immunoblotting. Phosphorylation of RB at Ser807/811 sites first requires binding of CDK4/6 [3] in order to progress into S-phase. […] To determine the kinetics of CDK4/6 inhibition on RB phosphorylation, WM2664 cells were treated with 300 nM G1T38 for 1, 4, 8, 16, and 24 hours.
WM2664 cells were either treated for dose response (3, 10, 30, 100, 300 or 1000 nM) for 24 hours or a time course (1, 4, 8, 16 or 24 hours) with 300 nM G1T38. Whole cell extracts were prepared using 1x radioimmunoprecipitation assay buffer (RIPA) (ThermoFisher) containing 1x HALT® protease and phosphatase inhibitors (ThermoFisher). Total protein concentration was determined by using the bicinchoninic acid (BCA) Protein Assay Kit (PIERCE/ ThermoFisher), according to manufacturer's instructions. 20 micrograms of protein were heat denatured for 10 minutes at 70°C and resolved by Novex® NuPAGE® SDS-PAGE gel system (ThermoFisher) at 200 volts, constant current and transferred to 0.45 μm nitrocellulose membrane (Life Technologies) in 1 x Transfer buffer (Life Technologies) plus 20% methanol (Sigma-Aldrich (St. Louis, MO) by electroblotting at 35 volts, constant current. Membranes were blocked in LiCor Membrane Blocking Buffer (Lincoln, NE) and incubated overnight with either rabbit anti-pRb (Ser807/811, CST-9308) antibody (Cell Signaling Technology (Danvers, MA) at a 1:500 dilution or mouse anti-Rb (CST-9309) at a 1:2,000 dilution and mouse α-tubulin (CST-3873) antibody (Cell Signaling Technology) at a 1:1,000 dilution, as a loading control. […] Blots were incubated for one hour, washed and imaged using LiCor ImageStudio software (Version 4.0.21).

[4] = system: pRB in MCF7 xenograft tumors; assay: Inhibition of Rb phosphorylation in MCF-7 tumors; format: in vivo, mice; details: single oral dose 100 mg/kg
[5] = system: ER+ MCF7 xenograft; assay: MCF-7 breast cancer xenograft model; format: in vivo, mice; details: for tumor growth inhibition (TGI): after 27 days of treatment
Experimental: Tumors were measured every 3 to 4 days during treatment for up to 20 days post-treatment. […] South Texas Accelerated Research Therapeutics (START; San Antonio, Texas) evaluated the antitumor activity of G1T38 in a START Cell-Based Xenograft (START-CBX) tumor model, MCF-7, representing human breast cancer. Data collected from this efficacy study included animal weights, observations, and tumor dimensions. This information was used to determine agent tolerability based on weight change and gross physiologic changes, and anticancer activity based on tumor growth inhibition or regression. Study endpoint was Day 60. MCF-7 cells were harvested from culture and injected into immune-deficient mice and the study initiated at a mean tumor volume of approximately 150-250 mm^3. […] Tumor growth inhibition (%TGI) was calculated using the following equation: %TGI=(1-(((TVtmtfinal-TVtmtinitial))/((AVERAGE(TVctlfinal))-(AVERAGE(TVctlinital)))))*100.

[6] = target: CDK2/Cyclin A (Homo sapiens, UniProt P24941); details: read-out: IC50 CDK2/Cyclin A, Mean; 12-point dose response, singlicate, at Km for ATP
Experimental: The assays were completed using microfluidic kinase detection technology (Caliper Assay Platform). The compounds were tested in 12-point dose response format in singlicate at the Km for ATP. Phosphoacceptor substrate peptide concentration used was 1 μM and Staurosporine was used as the reference compound for all assays.

[7] = in vivo; details: C57BL/6, mouse, po
[8] = target: JAK2 (Homo sapiens, UniProt O60674); assay: JAK2 inhibition; format: biochemical
[9] = target: T1, FLT3 (D835V) (Homo sapiens, UniProt P36888, D835V); assay: KdELECT Kd determination (DiscoveRx); format: binding; details: duplicate 11-point dose-response curves
T1 construct: purchased DiscoveRx (KdELECT service)
Experimental: (§1) G1T38 was profiled at DiscoveRx (Fremont, CA) using their KINOMEscan and scanMAX screening technology.
(§2) Supplementary Table 1: G1T38 Kinase Interactions
(§3) primary screen. Inhibitor binding constants (Kd values) were calculated from duplicate 11-point dose-response curves for
(§4) (1 picture or pasted object on this page, not shown here)

[10] = target: T2, SNARK (Homo sapiens, UniProt Q9H093); assay: KdELECT Kd determination (DiscoveRx); format: binding; details: duplicate 11-point dose-response curves
T2 construct: purchased DiscoveRx (KdELECT service)
Experimental: as §1, §2, §3, §4

[11] = target: T3, NEK10 (Homo sapiens, UniProt Q6ZWH5); assay: KdELECT Kd determination (DiscoveRx); format: binding; details: duplicate 11-point dose-response curves
T3 construct: purchased DiscoveRx (KdELECT service)
T3 sequence (Q6ZWH5 whole entry): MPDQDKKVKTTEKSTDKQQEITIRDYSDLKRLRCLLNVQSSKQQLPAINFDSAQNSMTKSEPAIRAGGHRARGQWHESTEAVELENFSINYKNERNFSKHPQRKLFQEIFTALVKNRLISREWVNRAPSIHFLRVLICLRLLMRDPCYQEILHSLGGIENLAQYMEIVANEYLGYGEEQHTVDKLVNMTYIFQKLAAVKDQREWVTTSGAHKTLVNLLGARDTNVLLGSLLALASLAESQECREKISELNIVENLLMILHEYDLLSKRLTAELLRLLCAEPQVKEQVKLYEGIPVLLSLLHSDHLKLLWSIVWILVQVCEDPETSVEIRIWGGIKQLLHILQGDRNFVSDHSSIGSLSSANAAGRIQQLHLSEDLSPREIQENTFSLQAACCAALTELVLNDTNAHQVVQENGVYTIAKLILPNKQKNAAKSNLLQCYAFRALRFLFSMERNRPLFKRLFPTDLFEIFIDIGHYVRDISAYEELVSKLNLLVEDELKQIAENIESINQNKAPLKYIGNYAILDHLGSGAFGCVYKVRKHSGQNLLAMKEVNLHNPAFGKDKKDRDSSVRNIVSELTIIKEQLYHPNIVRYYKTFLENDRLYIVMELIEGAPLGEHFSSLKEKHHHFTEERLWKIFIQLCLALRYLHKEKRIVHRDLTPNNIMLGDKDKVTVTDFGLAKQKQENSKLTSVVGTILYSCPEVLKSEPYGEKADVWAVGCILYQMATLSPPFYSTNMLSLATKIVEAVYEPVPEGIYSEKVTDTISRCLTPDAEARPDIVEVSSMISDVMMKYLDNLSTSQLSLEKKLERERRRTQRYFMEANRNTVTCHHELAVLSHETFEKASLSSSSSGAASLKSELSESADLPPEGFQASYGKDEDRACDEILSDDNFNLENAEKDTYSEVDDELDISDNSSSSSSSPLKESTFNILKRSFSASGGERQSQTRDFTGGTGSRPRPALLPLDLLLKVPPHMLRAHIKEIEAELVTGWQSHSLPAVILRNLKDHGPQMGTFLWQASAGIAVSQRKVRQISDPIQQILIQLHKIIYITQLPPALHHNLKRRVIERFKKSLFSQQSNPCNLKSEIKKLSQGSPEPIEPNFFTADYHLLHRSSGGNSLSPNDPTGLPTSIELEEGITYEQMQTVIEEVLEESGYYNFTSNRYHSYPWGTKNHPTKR
Experimental: as §1, §2, §3, §4

[12] = target: T4, SLK (Homo sapiens, UniProt Q9H2G2); assay: KdELECT Kd determination (DiscoveRx); format: binding; details: duplicate 11-point dose-response curves
T4 construct: purchased DiscoveRx (KdELECT service)
T4 sequence (Q9H2G2 whole entry): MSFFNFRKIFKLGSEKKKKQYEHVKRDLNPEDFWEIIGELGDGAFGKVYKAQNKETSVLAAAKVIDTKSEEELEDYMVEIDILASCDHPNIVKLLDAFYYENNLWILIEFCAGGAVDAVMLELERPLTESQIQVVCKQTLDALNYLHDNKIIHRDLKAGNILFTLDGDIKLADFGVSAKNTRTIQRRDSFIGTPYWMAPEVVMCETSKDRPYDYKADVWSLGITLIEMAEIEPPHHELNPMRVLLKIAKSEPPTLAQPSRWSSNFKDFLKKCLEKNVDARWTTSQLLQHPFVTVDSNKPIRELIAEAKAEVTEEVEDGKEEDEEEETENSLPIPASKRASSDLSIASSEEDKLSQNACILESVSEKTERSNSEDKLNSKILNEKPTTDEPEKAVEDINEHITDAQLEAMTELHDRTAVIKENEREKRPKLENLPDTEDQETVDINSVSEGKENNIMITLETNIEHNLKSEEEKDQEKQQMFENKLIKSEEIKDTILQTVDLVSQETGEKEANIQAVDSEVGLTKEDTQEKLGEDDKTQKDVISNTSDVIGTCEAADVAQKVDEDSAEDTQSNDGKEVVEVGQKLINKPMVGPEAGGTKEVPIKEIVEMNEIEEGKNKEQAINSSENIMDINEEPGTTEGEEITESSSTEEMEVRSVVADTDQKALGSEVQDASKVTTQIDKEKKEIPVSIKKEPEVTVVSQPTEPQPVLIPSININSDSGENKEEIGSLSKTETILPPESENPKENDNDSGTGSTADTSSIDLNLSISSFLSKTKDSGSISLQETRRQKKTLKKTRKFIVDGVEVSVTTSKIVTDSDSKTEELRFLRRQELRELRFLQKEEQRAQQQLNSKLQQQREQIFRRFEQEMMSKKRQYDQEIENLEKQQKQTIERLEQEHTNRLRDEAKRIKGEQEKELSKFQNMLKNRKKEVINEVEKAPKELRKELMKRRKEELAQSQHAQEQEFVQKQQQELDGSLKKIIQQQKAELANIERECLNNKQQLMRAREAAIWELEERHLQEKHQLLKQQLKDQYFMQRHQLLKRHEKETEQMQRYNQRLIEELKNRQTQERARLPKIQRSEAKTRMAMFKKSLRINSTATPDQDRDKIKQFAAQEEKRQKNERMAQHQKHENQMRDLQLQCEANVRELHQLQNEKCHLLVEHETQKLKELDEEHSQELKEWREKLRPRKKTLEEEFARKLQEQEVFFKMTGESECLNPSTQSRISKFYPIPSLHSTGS
Experimental: as §1, §2, §3, §4

[13] = target: T5, CDK4/ CyclinD1 (Homo sapiens, UniProt P11802); assay: KdELECT Kd determination (DiscoveRx); format: binding; details: duplicate 11-point dose-response curves
T5 construct: purchased DiscoveRx (KdELECT service)
T5 sequence (P11802 whole entry): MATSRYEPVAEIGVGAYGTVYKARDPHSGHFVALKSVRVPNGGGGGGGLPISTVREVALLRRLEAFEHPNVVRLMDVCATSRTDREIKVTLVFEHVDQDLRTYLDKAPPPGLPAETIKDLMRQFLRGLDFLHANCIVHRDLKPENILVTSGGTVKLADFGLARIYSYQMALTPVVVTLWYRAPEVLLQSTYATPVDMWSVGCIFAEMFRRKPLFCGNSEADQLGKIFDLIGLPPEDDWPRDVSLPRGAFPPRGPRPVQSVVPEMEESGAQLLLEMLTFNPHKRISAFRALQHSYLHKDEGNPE
T5 sequence (P24385 whole entry partner): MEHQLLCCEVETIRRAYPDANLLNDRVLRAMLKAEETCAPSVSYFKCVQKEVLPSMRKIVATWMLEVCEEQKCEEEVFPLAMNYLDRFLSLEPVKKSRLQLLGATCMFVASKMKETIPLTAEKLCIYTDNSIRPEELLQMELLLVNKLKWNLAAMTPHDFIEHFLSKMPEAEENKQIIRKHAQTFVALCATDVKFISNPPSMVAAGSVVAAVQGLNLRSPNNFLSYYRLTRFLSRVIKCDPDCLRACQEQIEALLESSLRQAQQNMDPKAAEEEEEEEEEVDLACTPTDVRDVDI
Experimental: as §1, §2, §3, §4

[14] = target: T6, ULK2 (Homo sapiens, UniProt Q8IYT8); assay: KdELECT Kd determination (DiscoveRx); format: binding; details: duplicate 11-point dose-response curves
T6 construct: purchased DiscoveRx (KdELECT service)
T6 sequence (Q8IYT8 whole entry): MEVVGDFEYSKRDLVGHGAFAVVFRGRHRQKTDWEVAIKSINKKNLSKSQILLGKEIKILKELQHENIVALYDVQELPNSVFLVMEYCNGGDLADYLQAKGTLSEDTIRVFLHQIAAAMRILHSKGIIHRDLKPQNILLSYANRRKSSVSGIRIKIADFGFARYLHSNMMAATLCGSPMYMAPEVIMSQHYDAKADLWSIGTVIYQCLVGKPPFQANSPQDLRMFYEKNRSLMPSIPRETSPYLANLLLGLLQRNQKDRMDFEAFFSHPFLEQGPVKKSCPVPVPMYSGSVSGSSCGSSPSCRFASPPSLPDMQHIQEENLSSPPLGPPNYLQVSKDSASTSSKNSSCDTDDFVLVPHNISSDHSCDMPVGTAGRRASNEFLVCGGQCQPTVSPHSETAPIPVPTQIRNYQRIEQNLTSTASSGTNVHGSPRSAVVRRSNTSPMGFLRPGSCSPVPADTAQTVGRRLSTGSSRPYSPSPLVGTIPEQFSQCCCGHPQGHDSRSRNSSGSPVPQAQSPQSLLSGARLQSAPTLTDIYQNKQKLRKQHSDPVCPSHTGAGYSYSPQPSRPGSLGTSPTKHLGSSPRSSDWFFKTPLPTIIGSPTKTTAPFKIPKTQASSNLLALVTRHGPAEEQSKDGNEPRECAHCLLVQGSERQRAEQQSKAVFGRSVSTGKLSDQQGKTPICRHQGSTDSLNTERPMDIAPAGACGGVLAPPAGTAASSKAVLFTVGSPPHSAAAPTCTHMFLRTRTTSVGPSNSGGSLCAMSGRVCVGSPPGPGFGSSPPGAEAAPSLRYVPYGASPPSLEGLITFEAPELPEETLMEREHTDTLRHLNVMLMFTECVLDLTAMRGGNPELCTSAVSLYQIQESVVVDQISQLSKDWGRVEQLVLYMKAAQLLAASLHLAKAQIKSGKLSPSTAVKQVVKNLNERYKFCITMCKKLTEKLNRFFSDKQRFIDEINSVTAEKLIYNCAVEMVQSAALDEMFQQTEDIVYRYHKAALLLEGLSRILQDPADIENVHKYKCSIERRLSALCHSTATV
Experimental: as §1, §2, §3, §4

[15] = target: T7, PRKD2 (Homo sapiens, UniProt Q9BZL6); assay: KdELECT Kd determination (DiscoveRx); format: binding; details: duplicate 11-point dose-response curves
T7 construct: purchased DiscoveRx (KdELECT service)
T7 sequence (Q9BZL6 whole entry): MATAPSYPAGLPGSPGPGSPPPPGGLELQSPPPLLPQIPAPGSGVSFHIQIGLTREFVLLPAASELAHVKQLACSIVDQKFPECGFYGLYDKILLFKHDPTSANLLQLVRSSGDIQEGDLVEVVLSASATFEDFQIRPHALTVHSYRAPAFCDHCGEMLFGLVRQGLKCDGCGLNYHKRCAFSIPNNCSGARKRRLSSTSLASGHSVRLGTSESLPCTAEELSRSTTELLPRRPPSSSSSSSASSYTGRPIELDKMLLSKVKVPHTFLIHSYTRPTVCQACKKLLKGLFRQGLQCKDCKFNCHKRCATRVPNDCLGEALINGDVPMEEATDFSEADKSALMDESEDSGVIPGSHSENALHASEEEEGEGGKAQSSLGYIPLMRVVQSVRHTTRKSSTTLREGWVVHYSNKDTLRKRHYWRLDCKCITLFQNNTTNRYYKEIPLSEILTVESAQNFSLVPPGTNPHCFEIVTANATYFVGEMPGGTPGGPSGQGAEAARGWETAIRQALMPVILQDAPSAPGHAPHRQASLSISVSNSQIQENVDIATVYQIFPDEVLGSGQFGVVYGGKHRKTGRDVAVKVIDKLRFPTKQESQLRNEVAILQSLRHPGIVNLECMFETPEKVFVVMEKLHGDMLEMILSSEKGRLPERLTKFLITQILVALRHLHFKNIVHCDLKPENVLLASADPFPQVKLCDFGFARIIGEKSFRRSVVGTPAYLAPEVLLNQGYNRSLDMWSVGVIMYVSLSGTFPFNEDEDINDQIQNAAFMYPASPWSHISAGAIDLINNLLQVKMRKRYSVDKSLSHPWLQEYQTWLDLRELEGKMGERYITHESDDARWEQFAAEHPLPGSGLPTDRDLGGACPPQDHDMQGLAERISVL
Experimental: as §1, §2, §3, §4

For `CC(C)N1CCN(c2ccc(Nc3ncc4cc5n(c4n3)C3(CCCCC3)CNC5=O)nc2)CC1.Cl.Cl` [G1T38, 2′-((5-(4-isopropylpiperazin-1-yl)pyridin-2-yl)amino)-7′, 8′dihydro-6′Hspiro[cyclohexane1,9′ pyrazino[1′,2′:1,5]pyrrolo[2,3-d]pyrimidin]-6′-one di-hydrochloride], which “Mean Accumulation Ratio (AUC0-24hr Day 28 ÷ Day 1)” value (shortened to “Mean Accumulation Ratio”) ([1]; 1 mg/kg) is on record?
Its value is 1.08.

And the “Mean Accumulation Ratio” value ([1]; 2.5 mg/kg)?
The value was 1.3.

And the “Mean Accumulation Ratio” value ([1]; 5 mg/kg)?
Its value is 1.14.

And the “Mean Accumulation Ratio” value ([2]; 2.5 mg/kg)?
The value was 0.939.

What about the “Mean Accumulation Ratio” value ([2]; 5 mg/kg) of the same molecule?
The value was 0.958.

What about the “Mean Accumulation Ratio” value ([2]; 15 mg/kg) of the same molecule?
The value was 1.22.

What about the “time to near complete inhibition of RB phosphorylation post-treatment” value ([3]; 300 nM) of the same molecule?
Its value is at most 16 h.

And the “time to reduced RB phosphorylation post-treatment” value ([3]; 300 nM)?
Its value is at most 1 h.

What about the “inhibition of RB phosphorylation (figure legend)” value ([3]; 300 nM exposure, 24 hours) of the same molecule?
The value was “complete inhibition”.

What about the “inhibition of RB phosphorylation compared to vehicle controls” value ([3]; 30-1000 nM, 24 hours) of the same molecule?
The value was “complete inhibition”.

And the “decrease of phosphorylated RB relative to the control” value ([4]; 1 hour post-treatment)?
Its value is 30%.

What about the “decrease of phosphorylated RB relative to the control” value ([4]; 24 hours post-treatment) of the same molecule?
Its value is 98%.

And the “phosphorylation of RB, of control levels” value ([4]; 48 hours post-treatment)?
The value was “approximately 31%”.

And the “tumor growth inhibition (TGI)” value ([5]; 10 mg/kg once daily oral)?
Its value is “approximately 12%”.

And the “tumor response, combination with fulvestrant” value ([5]; 50 mg/kg G1T38 + 5 mg fulvestrant, 28 days)?
Its value is “near complete, sustained tumor regression”.

What about the “tumor response, combination with tamoxifen” value ([5]; 50 mg/kg G1T38 + 20 mg/kg tamoxifen, 28 days) of the same molecule?
The value was “near complete, sustained tumor regression”.

What about the “efficacy compared with palbociclib” value ([5]; 50 mg/kg daily oral, 28 days) of the same molecule?
The value was “significantly more efficacious than palbociclib”.

And the “tumor growth inhibition (TGI)” value ([5]; 50 mg/kg once daily oral)?
Its value is about 74%.

What about the “time to tumor regression” value ([5]; 100 mg/kg daily oral) of the same molecule?
Its value is at most 10 days.

What about the “tumor growth inhibition (TGI)” value ([5]; 100 mg/kg once daily oral) of the same molecule?
Its value is about 90%.

And the “efficacy, combination with GDC0941” value ([5]; G1T38 25 or 50 mg/kg + GDC0941 100 mg/kg)?
The value was “greater efficacy than any of the treatments alone”.

And the “tumor response, combination with GW5638” value ([5]; G1T38 25 or 50 mg/kg + GW5638 25 mg/kg)?
Its value is “sustained tumor regression”.

What about the “TGI as single agents (GDC0941 study)” value ([5]; G1T38 25 or 50 mg/kg alone, GDC0941 100 mg/kg alone) of the same molecule?
The value was “modest TGI”.

And the “TGI as single agents (GW5638 study)” value ([5]; G1T38 25 or 50 mg/kg alone, GW5638 25 mg/kg alone)?
The value was “modest TGI”.

And the IC50 [6]?
The IC50 was 1500 nM.

And the concentration at 24 h [7]?
The concentration at 24 h was about 22 nM.

And the IC50 [8]?
Its IC50 is over 500 nM.

And the Kd [9]?
The Kd was 6.5 nM.

And the Kd [10]?
The Kd was 0.69 nM.

And the Kd [11]?
Its Kd is 0.18 nM.

And the Kd [12]?
The Kd was 11 nM.

What about the Kd [13] of the same molecule?
The Kd was 0.15 nM.

What about the Kd [14] of the same molecule?
Its Kd is 5.5 nM.

What about the Kd [15] of the same molecule?
The Kd was 10 nM.
